# pIC50: −log10 of the molar value.
# Experiments:
# Type in all cases: biochemical
# JAK3 = biological target: T1, JAK3 (Homo sapiens, UniProt P52333); assay: experiment of inhibiting kinase activity (Caliper mobility shift assay), JAK3; details: for inhibition at 0.01 µM: at 10 nM, read-out: inhibition rate JAK3
# T1 sequence (P52333 1-1124): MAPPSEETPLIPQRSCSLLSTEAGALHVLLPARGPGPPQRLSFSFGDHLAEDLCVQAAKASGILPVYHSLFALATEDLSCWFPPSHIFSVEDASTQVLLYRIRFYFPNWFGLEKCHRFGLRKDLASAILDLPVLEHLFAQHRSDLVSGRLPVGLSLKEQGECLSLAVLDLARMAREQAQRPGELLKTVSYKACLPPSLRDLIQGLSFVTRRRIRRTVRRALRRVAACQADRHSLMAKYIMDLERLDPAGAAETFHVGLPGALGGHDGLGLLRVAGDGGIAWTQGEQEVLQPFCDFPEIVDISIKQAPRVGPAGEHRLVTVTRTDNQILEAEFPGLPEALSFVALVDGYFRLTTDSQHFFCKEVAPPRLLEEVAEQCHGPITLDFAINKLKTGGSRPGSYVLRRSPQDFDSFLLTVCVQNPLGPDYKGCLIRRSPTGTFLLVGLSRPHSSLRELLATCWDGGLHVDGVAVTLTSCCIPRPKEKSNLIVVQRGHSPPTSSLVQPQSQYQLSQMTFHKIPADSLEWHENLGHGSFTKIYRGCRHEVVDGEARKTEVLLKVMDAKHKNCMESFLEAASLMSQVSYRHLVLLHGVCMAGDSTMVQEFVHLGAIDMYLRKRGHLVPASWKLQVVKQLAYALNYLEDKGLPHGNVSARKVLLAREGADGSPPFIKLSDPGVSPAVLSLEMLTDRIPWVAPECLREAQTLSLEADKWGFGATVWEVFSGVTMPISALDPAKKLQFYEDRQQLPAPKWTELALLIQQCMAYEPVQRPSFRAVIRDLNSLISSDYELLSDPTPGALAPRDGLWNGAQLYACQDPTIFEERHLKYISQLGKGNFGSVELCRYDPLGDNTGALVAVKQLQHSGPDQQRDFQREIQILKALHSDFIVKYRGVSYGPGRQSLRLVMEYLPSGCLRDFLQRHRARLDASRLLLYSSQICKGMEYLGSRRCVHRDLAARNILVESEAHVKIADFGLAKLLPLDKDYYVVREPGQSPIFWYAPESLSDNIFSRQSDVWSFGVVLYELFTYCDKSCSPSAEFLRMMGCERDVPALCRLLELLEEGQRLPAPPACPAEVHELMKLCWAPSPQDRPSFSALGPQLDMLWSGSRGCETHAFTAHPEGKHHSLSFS
# Experimental: (§1) The inhibition rates of tested compounds on JAK1, JAK2, JAK3, TYK2, CDK7, CDK9, EGFR (T790M) and LRRK2 kinases were measured. The test concentrations of the compounds were 10 nM and 100 nM, and the detection was performed by replicate wells. Alternatively, compounds were 3-fold serial diluted from 10 µM for 10 concentrations in replicate wells.
# (§2) The inhibitory effects of the compounds on JAK1, JAK2, JAK3, CDK7 and CDK9 kinases were detected by the method of Caliper mobility shift assay. 250 nL of the compound at 100-fold final concentration was transferred to a destination plate 384-well-plate by using a liquid handler Echo 550. A kinase solution at 2.5-fold final concentration was prepared with 1×kinase buffer. 10 µL of the kinase solution with 2.5-fold final concentration was added to compound wells and positive control wells; and 10 µL of 1×kinase buffer was added to negative control wells. The mixture was centrifuged at 1000 rpm for 30 seconds and then incubated at room temperature for 10 minutes. A mixed solution of ATP and kinase substrate at 5/3-fold final concentration was prepared with 1×kinase buffer, and 15 µL of the mixed solution of ATP and substrate at 5/3-fold final concentration was added to start the reaction. The 384-well plate was centrifuged at 1000 rpm for 30 seconds, shaked and mixed evenly, then incubated at room temperature for a corresponding time. 30 µL of stop solution was added to stop the kinase reaction, the mixture was centrifuged at 1000 rpm for 30 seconds, and shaked and mixed evenly. The conversion rate was read by Caliper EZ Reader. The conversion inhibition rate%=(average positive control conversion rate%-sample conversion rate%)/(average positive control conversion rate%-average negative control conversion rate%). Where negative control wells represent the conversion readings of the background well of kinase buffer; and positive control wells represent the conversion readings of wells without compound inhibition. With the log value of concentration as the x axis and the percentage inhibition rate as the y axis, the dose-response curve was fitted by the log (inhibitor) vs. response-variable slope of the analyzing softwar GraphPad Prism 5, and the IC50 values of each compound on enzyme activity were obtained. Calculation formula is as follows: y=Bottom+(Top-Bottom)/(1+10^((LogIC50-x)×hillslope)), where x is logarithm of inhibitor concentration; and Y is % inhibition rate.
# JAK2 = JAK2 (Homo sapiens, UniProt O60674); assay: experiment of inhibiting kinase activity (Caliper mobility shift assay), JAK2; details: for inhibition at 0.01 µM: at 10 nM; for inhibition at 0.01 µM / inhibition at 0.1 µM: read-out: inhibition rate JAK2; for inhibition at 0.1 µM: at 100 nM; for pIC50: kinase activity assay, Table 3
# JAK2, sequence (O60674 whole entry): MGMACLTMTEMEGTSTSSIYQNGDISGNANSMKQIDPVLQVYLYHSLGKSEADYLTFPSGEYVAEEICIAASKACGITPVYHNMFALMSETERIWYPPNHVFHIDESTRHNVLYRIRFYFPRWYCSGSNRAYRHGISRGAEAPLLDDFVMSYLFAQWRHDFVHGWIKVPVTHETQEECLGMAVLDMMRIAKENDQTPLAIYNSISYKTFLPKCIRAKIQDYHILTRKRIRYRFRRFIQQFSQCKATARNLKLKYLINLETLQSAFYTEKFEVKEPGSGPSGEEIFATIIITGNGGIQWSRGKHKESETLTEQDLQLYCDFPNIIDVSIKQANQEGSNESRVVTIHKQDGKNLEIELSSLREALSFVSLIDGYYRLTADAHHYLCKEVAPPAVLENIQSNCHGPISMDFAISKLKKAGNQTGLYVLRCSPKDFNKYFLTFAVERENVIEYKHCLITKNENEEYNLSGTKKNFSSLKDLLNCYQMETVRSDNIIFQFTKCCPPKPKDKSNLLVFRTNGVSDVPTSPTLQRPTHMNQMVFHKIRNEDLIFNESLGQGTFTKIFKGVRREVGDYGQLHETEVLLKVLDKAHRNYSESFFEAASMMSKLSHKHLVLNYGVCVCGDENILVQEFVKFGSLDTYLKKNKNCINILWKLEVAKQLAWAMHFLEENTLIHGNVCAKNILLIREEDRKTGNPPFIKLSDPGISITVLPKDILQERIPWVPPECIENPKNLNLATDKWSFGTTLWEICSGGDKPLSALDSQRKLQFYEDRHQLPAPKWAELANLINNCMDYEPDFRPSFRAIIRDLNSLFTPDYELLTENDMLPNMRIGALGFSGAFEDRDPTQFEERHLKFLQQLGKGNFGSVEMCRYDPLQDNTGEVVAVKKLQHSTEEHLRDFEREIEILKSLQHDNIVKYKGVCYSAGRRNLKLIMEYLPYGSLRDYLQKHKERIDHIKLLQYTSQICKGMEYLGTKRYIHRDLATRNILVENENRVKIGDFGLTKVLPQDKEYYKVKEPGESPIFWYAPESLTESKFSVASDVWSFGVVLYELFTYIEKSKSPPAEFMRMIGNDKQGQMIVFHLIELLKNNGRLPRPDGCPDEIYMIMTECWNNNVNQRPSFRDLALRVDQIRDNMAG
# Experimental: as §1, §2
# TYK2 = TYK2 (Homo sapiens, UniProt P29597); assay: experiment of inhibiting kinase activity, TYK2; details: read-out: inhibition rate TYK2; for inhibition at 0.01 µM: at 10 nM
# TYK2, sequence (P29597 whole entry): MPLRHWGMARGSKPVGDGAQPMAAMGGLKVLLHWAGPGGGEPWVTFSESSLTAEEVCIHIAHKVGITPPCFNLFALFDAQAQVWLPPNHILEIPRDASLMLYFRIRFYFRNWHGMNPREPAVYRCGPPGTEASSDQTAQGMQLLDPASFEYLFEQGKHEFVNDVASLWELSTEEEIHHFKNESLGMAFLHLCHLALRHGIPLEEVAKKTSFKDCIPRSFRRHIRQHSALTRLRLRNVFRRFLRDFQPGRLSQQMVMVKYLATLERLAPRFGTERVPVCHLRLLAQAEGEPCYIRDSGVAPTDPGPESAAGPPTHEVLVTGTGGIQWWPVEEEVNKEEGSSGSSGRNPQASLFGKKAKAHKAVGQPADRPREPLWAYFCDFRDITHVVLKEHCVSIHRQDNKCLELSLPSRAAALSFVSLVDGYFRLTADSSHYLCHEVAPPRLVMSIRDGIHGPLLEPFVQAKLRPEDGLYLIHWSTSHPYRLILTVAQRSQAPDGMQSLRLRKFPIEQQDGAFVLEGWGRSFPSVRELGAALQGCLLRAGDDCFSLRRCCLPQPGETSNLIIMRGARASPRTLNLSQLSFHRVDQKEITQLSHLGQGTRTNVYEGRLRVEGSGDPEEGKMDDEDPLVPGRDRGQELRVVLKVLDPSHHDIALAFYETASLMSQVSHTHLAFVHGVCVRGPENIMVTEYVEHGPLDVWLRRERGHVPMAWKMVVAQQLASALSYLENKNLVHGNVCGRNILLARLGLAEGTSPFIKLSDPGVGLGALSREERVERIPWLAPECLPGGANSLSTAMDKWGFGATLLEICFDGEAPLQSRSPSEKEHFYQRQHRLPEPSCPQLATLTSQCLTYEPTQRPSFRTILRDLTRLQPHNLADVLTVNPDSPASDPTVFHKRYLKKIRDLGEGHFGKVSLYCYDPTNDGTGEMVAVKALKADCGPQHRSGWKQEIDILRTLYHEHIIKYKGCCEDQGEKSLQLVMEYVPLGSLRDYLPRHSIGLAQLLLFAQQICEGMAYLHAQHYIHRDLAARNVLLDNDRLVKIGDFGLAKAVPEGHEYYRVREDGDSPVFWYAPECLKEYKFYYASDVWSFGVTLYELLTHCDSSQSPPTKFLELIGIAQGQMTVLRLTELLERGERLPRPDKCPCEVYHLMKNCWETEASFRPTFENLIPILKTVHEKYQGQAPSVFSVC
# Experimental: as §1
# LRRK2 = LRRK2 (Homo sapiens, UniProt Q5S007); assay: experiment of inhibiting kinase activity, LRRK2; details: for inhibition at 0.01 µM: at 10 nM; for inhibition at 0.01 µM / inhibition at 0.1 µM: read-out: inhibition rate LRRK2; for inhibition at 0.1 µM: at 100 nM; for pIC50: kinase activity assay, Table 3
# LRRK2, sequence (Q5S007 whole entry): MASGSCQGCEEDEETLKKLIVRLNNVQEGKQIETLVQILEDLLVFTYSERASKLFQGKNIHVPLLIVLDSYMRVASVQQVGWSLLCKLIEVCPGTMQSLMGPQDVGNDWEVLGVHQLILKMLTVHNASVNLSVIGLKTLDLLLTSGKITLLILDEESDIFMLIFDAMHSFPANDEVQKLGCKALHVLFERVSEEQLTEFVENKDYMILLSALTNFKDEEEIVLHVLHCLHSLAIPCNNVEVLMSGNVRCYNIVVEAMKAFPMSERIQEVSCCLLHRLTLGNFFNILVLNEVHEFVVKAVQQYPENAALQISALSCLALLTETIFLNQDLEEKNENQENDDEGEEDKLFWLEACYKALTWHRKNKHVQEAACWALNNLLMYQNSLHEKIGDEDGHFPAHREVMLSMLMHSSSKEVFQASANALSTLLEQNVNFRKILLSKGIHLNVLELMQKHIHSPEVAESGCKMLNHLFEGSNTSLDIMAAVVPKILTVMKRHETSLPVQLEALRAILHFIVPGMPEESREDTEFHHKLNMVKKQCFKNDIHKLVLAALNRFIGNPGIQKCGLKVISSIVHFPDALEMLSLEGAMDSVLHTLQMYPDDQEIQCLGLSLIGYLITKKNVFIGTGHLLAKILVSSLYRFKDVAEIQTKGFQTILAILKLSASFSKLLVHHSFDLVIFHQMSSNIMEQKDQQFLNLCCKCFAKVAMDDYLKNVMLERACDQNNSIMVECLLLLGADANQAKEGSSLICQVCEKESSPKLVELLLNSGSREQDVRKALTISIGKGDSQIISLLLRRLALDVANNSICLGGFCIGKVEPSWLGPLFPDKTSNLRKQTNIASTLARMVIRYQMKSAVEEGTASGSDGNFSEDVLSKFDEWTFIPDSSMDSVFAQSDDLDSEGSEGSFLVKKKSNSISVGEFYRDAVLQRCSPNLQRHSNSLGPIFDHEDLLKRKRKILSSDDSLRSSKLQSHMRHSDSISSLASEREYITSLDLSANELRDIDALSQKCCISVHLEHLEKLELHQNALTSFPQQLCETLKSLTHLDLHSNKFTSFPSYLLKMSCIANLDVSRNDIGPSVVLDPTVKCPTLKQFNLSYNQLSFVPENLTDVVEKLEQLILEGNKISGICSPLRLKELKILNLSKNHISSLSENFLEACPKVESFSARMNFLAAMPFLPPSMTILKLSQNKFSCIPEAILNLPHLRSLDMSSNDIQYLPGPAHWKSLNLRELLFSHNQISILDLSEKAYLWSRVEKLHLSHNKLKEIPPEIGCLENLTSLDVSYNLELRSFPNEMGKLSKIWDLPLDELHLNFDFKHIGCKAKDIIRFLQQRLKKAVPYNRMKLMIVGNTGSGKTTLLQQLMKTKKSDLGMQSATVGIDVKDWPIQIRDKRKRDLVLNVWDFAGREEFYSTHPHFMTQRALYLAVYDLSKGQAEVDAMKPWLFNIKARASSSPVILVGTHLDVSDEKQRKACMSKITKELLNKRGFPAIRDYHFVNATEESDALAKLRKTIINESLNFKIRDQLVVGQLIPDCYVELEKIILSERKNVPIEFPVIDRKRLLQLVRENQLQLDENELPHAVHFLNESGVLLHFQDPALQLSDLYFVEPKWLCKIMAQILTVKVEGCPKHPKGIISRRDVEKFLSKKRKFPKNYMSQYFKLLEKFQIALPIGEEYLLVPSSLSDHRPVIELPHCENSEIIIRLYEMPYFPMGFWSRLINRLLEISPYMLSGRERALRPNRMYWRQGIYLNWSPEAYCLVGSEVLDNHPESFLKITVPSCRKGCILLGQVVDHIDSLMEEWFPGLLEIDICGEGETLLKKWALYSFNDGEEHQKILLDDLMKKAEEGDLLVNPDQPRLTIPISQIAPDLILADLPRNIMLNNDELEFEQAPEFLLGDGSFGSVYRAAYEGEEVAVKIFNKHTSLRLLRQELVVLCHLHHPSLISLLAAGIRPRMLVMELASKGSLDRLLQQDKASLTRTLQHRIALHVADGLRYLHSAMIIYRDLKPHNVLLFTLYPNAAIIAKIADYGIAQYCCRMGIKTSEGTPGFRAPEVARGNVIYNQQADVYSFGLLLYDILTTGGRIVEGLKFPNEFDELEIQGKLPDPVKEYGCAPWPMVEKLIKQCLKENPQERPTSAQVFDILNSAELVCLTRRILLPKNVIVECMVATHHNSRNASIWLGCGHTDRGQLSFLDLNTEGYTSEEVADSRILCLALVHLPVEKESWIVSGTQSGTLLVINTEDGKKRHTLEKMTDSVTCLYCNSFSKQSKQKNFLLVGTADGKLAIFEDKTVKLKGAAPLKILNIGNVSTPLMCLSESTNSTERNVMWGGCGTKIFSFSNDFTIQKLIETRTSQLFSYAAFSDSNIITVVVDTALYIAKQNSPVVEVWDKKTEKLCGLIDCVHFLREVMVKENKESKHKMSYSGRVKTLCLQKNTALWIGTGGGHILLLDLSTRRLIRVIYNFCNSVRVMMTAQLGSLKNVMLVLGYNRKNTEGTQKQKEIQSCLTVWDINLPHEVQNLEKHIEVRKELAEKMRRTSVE
# Experimental: as §1
SMILES,inhibition at 0.01 µM (JAK3) [%],inhibition at 0.01 µM (JAK2) [%],inhibition at 0.01 µM (LRRK2) [%],inhibition at 0.1 µM (LRRK2) [%],pIC50 (LRRK2),inhibition at 0.1 µM (JAK2) [%],other results
"CN1CCOCCOc2ccc(Nc3ncc(F)c(-c4cn(C)c5ccccc45)n3)cc2OCC1 [Example 41, N-(5-fluoro-4-(1-methyl-1H-indol-3-yl)pyrimidin-2-yl)-7-methyl-2,3,6,7,8,9-hexahydro-5H-benzo[b][1,4,7]trioxa[10]azacyclododecan-12-amine]",25 to 39,40 to 79,,,,,
"CCS(=O)(=O)N1CC(CC#N)(n2cc(-c3nc(Nc4ccc5c(c4)OCCN(C)CCOCCO5)ncc3F)cn2)C1 [Example 43, 2-(1-(ethylsulfonyl)-3-(4-(5-fluoro-2-((7-methyl-2,3,6,7,8,9-hexahydro-5H-benzo[b][1,4,7]trioxa[10]azacyclododecan-12-yl)amino)pyrimidin-4-yl)-1H-pyrazol-1-yl)azetidin-3-yl) acetonitrile]",25 to 39,> 80,25 to 39,,,,inhibition at 0.01 µM (TYK2): 40 to 79%
"CCS(=O)(=O)N1CC(CC#N)(n2cc(-c3nc(Nc4ccc5c(c4)OCCN(C)CCOCCO5)nc4[nH]ncc34)cn2)C1 [Example 50, 2-(1-(ethylsulfonyl)-3-(4-(6-((7-methyl-2,3,6,7,8,9-hexahydro-5H-benzo[b][1,4,7]trioxa[10]azacyclododecan-12-yl)amino)-1H-pyrazolo[3,4-d]pyrimidin-4-yl)-1H-pyrazol-1-y 1)azetidin-3-yl)acetonitrile]",,> 80,,,,,inhibition at 0.01 µM (TYK2): 25 to 39%
"CN1CCOCCOc2cc(Nc3nc(-c4cnn(S(C)(=O)=O)c4)c4cc[nH]c4n3)ccc2OCC1 [Example 63, 7-methyl-N-(4-(1-(methylsulfonyl)-1H-pyrazol-4-yl)-7H-pyrrolo[2,3-d]pyrimidin-2-yl)-2,3,6,7,8,9-hexahydro-5H-benzo[b][1,4,7]trioxa[10]azacyclododecan-13-amine]",,40 to 79,40 to 79,,,,
"CN1CCOc2ccc(Nc3ncc(F)c(-c4cn(C)c5ccccc45)n3)cc2OCC1 [Example 13, N-(5-fluoro-4-(1-methyl-1H-indol-3-yl)pyrimidin-2-yl)-4-methyl-3,4,5,6-tetrahydro-2H -benzo[b][1,4,7]bisoxazolin-9-amine]",,,,40 to 79,6.70 to 7.30,40 to 79,"pIC50 (JAK3; kinase activity assay, Table 3): 6.70 to 7.30; inhibition at 0.1 µM (TYK2; at 100 nM): 25 to 39%; pIC50 (JAK2): > 7.30"
"CN1CCOCCOc2cc(Nc3nc(Nc4ccccc4NS(C)(=O)=O)c4cc[nH]c4n3)ccc2OCC1 [Example 61, N-(2-((2-((7-methyl-2,3,6,7,8,9-hexahydro-5H-benzo[b][1,4,7]trioxa[10]azacyclododecan-13-yl)amino)-7H-pyrrolo[2,3-d]pyrimidin-4-yl)amino)phenyl)methanesulfonamide]",40 to 79,40 to 79,> 80,,> 7.30,,
"CN1CCOc2ccc(Nc3nc(Nc4cccc(S(=O)(=O)NC(C)(C)C)c4)c4cc[nH]c4n3)cc2OCC1 [Example 21, N-(tert-butyl)-3-((2-((4-methyl-3,4,5,6-tetrahydro-2H-benzo[b][1,4,7]dioxazolin-9-yl)amino)-7H-pyrrolo[2,3-d]pyrimidin-4-yl)amino)benzenesulfonamide]",,,,40 to 79,6.70 to 7.30,40 to 79,pIC50 (JAK2): > 7.30
"CN1CCOc2ccc(Nc3nc(-c4cnn(C5CN(S(C)(=O)=O)C5)c4)c4cc[nH]c4n3)cc2OCC1 [Example 69, 4-methyl-N-(4-(1-(1-(methylsulfonyl)azetidin-3-yl)-1H-pyrazol-4-yl)-7H-pyrrolo [2,3-d]pyrimidin-2-yl)-3,4,5,6-tetrahydro-2H-benzo[b][1,4,7]dioxazolin-9-amine]",25 to 39,40 to 79,25 to 39,,,,
"CNc1nc(Nc2ccc3c(c2)OCCN(C)CCO3)nc2[nH]ccc12 [Example 64, N^4-methyl-N^2-(4-methyl-3,4,5,6-tetrahydro-2H-benzo[b][1,4,7]dioxazolin-9-yl)-7H-pyrrolo[2,3-d]pyrimidin-2,4-diamine]",,,,> 80,,25 to 39,

# — EP4592286A1, “MACROCYCLIC NITROGEN-CONTAINING CROWN ETHER COMPOUND AND USE THEREOF AS PROTEIN KINASE INHIBITOR” (Artivila Biopharma, priority 2022, dated 2024)
